# Patent US20230203029A1 (priority 2020, published 2023)
# Like-named read-outs stand apart in the source and are kept apart here.
# Legend:
# [1] = target: T1, recombinant human MERTK expressed in live cells (HEK 293, MERTK-Nanoluc fusion vector) (Homo sapiens, UniProt Q12866); assay: Assay 2 MERTK cellular target engagement (NanoBRET TE) assay; type: cell-based
# T1 construct: host or cells: HEK 293
# T1 sequence (Q12866 21-999): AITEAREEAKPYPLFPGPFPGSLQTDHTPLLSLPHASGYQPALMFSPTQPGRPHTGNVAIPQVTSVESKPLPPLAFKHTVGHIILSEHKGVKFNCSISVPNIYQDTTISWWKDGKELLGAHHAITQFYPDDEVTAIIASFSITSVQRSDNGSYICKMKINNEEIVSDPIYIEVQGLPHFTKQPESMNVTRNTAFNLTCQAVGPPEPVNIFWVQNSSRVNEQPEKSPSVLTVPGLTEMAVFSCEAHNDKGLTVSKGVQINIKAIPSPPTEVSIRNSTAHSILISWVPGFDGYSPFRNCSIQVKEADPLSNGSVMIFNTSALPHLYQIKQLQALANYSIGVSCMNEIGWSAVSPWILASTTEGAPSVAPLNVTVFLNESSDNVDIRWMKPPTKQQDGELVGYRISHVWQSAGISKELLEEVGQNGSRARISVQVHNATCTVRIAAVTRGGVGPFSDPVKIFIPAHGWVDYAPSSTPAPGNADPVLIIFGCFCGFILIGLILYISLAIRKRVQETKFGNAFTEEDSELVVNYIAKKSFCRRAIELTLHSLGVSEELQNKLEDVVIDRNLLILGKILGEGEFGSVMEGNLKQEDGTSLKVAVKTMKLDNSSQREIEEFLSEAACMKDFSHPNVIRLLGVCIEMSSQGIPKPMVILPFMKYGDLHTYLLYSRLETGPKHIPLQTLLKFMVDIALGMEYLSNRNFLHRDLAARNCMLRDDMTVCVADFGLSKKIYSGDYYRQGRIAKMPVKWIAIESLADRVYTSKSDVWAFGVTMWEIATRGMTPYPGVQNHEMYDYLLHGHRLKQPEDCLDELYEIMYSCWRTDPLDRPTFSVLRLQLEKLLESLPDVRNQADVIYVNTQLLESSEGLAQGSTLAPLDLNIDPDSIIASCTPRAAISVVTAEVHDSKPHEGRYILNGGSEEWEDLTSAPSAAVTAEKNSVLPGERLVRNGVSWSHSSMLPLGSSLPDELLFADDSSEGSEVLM
# [2] = target: T2, Ba/F3 Pro B-cell line expressing TEL-human Tyro3 fusion domain (Homo sapiens, UniProt Q06418); type: cell-based; details: cell survival, 48 h, CellTiter-Glo
# T2 sequence (Q06418 518-790 limits assumed): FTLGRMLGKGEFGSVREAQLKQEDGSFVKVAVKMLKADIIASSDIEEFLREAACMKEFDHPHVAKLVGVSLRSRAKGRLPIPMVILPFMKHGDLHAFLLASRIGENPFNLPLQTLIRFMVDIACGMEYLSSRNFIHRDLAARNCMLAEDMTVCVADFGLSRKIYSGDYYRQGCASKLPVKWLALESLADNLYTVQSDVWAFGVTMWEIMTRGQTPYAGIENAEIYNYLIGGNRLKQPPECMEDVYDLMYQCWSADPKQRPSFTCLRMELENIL
# [3] = HEK 293 cells, tracer K9, 2 h at 37° C., read-out: Assay 2 Cell TE MER IC50
"IC50 [1, 3] [nM]",SMILES,IC50 [2] [nM],IC50 [1] [nM]
26.3,"CN1CCC(NC(=O)c2cc3c(Nc4ccc(NC(=O)c5cccn(-c6ccccc6)c5=O)cc4)ccnc3cn2)CC1 [Example 3, N-(1-methyl-4-piperidyl)-4-[4-[(2-oxo-1-phenyl-pyridine-3-carbonyl)amino]anilino]-1,7-naphthyridine-6-carboxamide]",956,–
18.3,"O=C(Nc1ccc(Oc2ccnc3cnc(N4CCNCC4)cc23)cc1)c1cccn(-c2ccc(F)cc2)c1=O [Example 12.2, 1-(4-fluorophenyl)-2-oxo-N-[4-[(6-piperazin-1-yl-1,7-naphthyridin-4-yl)oxy]phenyl]pyridine-3-carboxamide]",238,–
244,"CC(C)n1cc(C(=O)Nc2ccc(Oc3ccnc4cnc(N5CCNCC5)cc34)cc2)c(=O)n(-c2ccccn2)c1=O [Example 12.3, 1-isopropyl-2,4-dioxo-N-[4-[(6-piperazin-1-yl-1,7-naphthyridin-4-yl)oxy]phenyl]-3-(2-pyridyl)pyrimidine-5-carboxamide]",1320,–
45.4,"CC(C)n1cc(C(=O)Nc2ccc(Oc3ccnc4cnc(N5CCNCC5)cc34)cc2)c(=O)n(-c2ccc(F)cn2)c1=O [Example 12.4, 3-(5-fluoro-2-pyridyl)-1-isopropyl-2,4-dioxo-N-[4-[(6-piperazin-1-yl-1,7-naphthyridin-4-yl)oxy]phenyl]pyrimidine-5-carboxamide]",313,–
6.7,"CC(C)n1cc(C(=O)Nc2ccc(Oc3ccnc4cnc(N5CCNCC5)cc34)cc2)c(=O)c(-c2ccc(F)cc2)c1 [Example 13, 5-(4-Fluorophenyl)-1-isopropyl-4-oxo-N-[4-[(6-piperazin-1-yl-1,7-naphthyridin-4-yl)oxy]phenyl]pyridine-3-carboxamide]",212,–
12.4,"Cn1cc(C(=O)Nc2ccc(Oc3ccnc4cnc(N5CCNCC5)cc34)cc2)c(=O)c(-c2ccc(F)cc2)c1 [Example 13.1, 5-(4-fluorophenyl)-1-methyl-4-oxo-N-[4-[(6-piperazin-1-yl-1,7-naphthyridin-4-yl)oxy]phenyl]pyridine-3-carboxamide]",179,–
75.9,"C[C@H](CO)n1cc(C(=O)Nc2ccc(Oc3ccnc4cnc(C(=O)NC5CCN(C)CC5)cc34)cc2)c(=O)n(-c2ccc(F)cc2)c1=O [Example 14, 4-[4-[[3-(4-Fluorophenyl)-2,4-dioxo-1-[(1R)-2-hydroxy-1-methyl-ethyl]pyrimidine-5-carbonyl]amino]phenoxy]-N-(1-methyl-4-piperidyl)-1,7-naphthyridine-6-carboxamide]",592,–
133,"CN1CCC(NC(=O)c2cc3c(Oc4ccc(NC(=O)c5cn(C6CC6)c(=O)n(-c6ccc(F)cc6)c5=O)cc4)ccnc3cn2)CC1 [Example 15, 4-[4-[[1-Cyclopropyl-3-(4-fluorophenyl)-2,4-dioxo-pyrimidine-5-carbonyl]amino]phenoxy]-N-(1-methyl-4-piperidyl)-1,7-naphthyridine-6-carboxamide]",673,–
–,"O=C(Nc1ccc(Oc2ccnc3cnc(N4CCN(C5COC5)CC4)cc23)cn1)c1ccnn(-c2ccc(F)cc2)c1=O [Example 20, 2-(4-fluorophenyl)-N-[5-[[6-[4-(oxetan-3-yl)piperazin-1-yl]-1,7-naphthyridin-4-yl]oxy]-2-pyridyl]-3-oxo-pyridazine-4-carboxamide]",272,–
30.5,"CC(C)n1cc(C(=O)Nc2ccc(Oc3ccnc4cnc(C(=O)NC5CCN(C)CC5)cc34)cn2)c(=O)n(-c2ccc(F)cc2)c1=O [Example 27.5, 4-[[6-[[3-(4-fluorophenyl)-1-isopropyl-2,4-dioxo-pyrimidine-5-carbonyl]amino]-3-pyridyl]oxy]-N-(1-methyl-4-piperidyl)-1,7-naphthyridine-6-carboxamide]",107,–
–,"Cc1cc(NC(=O)c2cccn(-c3ccccc3)c2=O)ccc1Oc1ccnc2cnc(N3CCNCC3)cc12 [Example 30, N-[3-methyl-4-[(6-piperazin-1-yl-1,7-naphthyridin-4-yl)oxy]phenyl]-2-oxo-1-phenyl-pyridine-3-carboxamide]",1330,244
74.3,"CN1CCC(NC(=O)c2cc3c(Oc4ccc(NC(=O)c5cccn(-c6ccccc6)c5=O)cc4F)ccnc3cn2)CC1 [Example 33, 4-[2-fluoro-4-[(2-oxo-1-phenyl-pyridine-3-carbonyl)amino]phenoxy]-N-(1-methyl-4-piperidyl)-1,7-naphthyridine-6-carboxamide]",155,–
68.1,"O=C(Nc1ccc(Oc2ccnc3cnc(N4CCNCC4)cc23)cc1)c1cn(C2CC2)c(=O)n(-c2ccc(F)cc2)c1=O [Example 36, 1-cyclopropyl-3-(4-fluorophenyl)-2,4-dioxo-N-[4-[(6-piperazin-1-yl-1,7-naphthyridin-4-yl)oxy]phenyl]pyrimidine-5-carboxamide]",873,–
41.4,"CN1CCC(NC(=O)c2cc3c(Oc4ccc(NC(=O)c5cn(C)cc(-c6ccc(F)cc6)c5=O)cc4)ccnc3cn2)CC1 [Example 37, 4-[4-[[5-(4-fluorophenyl)-1-methyl-4-oxo-pyridine-3-carbonyl]amino]phenoxy]-N-(1-methyl-4-piperidyl)-1,7-naphthyridine-6-carboxamide]",251,–
8.3,"CC(C)n1cc(C(=O)Nc2ccc(Oc3ccnc4cnc(C(=O)NC5CCN(C)CC5)cc34)cc2)c(=O)c(-c2ccc(F)cc2)c1 [Example 37.1, 4-[4-[[5-(4-fluorophenyl)-1-isopropyl-4-oxo-pyridine-3-carbonyl]amino]phenoxy]-N-(1-methyl-4-piperidyl)-1,7-naphthyridine-6-carboxamide]",43,–
